Reference: the supplement of paper PMC11451515

Tested on: P12-Ichikawa
Assay: cell viability relative to DMSO control; higher = less cytotoxic
Details: 48 h
Outline: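 Viability is a per-plate percentage relative to DMSO wells, with cell-free wells as background. CellTiter-Glo One luminescence was read after 48 h at 37°C on 1536-well plates (5 μl) of NOMO1 or SEM (500 cells/well) or P12-Ichikawa (1000 cells/well) leukemia cells. The cells had been adapted for at least four passages in each medium and pin-dosed with library compounds in DMSO from 47 μM to 0.79 nM in 11 threefold steps.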

[1] = HPLM + 10% dialyzed FBS, 0.000781 µM
[2] = HPLM + 10% dialyzed FBS, 0.00234 µM
[3] = HPLM + 10% dialyzed FBS, 0.00702 µM
[4] = HPLM + 10% dialyzed FBS, 0.0211 µM
[5] = HPLM + 10% dialyzed FBS, 0.0632 µM
[6] = HPLM + 10% dialyzed FBS, 0.19 µM
[7] = HPLM + 10% dialyzed FBS, 0.569 µM
[8] = HPLM + 10% dialyzed FBS, 1.71 µM
[9] = HPLM + 10% dialyzed FBS, 5.12 µM
[10] = HPLM + 10% dialyzed FBS, 15.4 µM
[11] = HPLM + 10% dialyzed FBS, 46.1 µM
[12] = RPMI 5 mM glucose + 10% FBS, 0.000781 µM
[13] = RPMI 5 mM glucose + 10% FBS, 0.00234 µM
[14] = RPMI 5 mM glucose + 10% FBS, 0.00702 µM
[15] = RPMI 5 mM glucose + 10% FBS, 0.0211 µM
[16] = RPMI 5 mM glucose + 10% FBS, 0.0632 µM
[17] = RPMI 5 mM glucose + 10% FBS, 0.19 µM
[18] = RPMI 5 mM glucose + 10% FBS, 0.569 µM
[19] = RPMI 5 mM glucose + 10% FBS, 1.71 µM
[20] = RPMI 5 mM glucose + 10% FBS, 5.12 µM
[21] = RPMI 5 mM glucose + 10% FBS, 15.4 µM
[22] = RPMI 5 mM glucose + 10% FBS, 46.1 µM
[23] = RPMI 5 mM glucose + 10% dialyzed FBS, 0.000781 µM
[24] = RPMI 5 mM glucose + 10% dialyzed FBS, 0.00234 µM
[25] = RPMI 5 mM glucose + 10% dialyzed FBS, 0.00702 µM
[26] = RPMI 5 mM glucose + 10% dialyzed FBS, 0.0211 µM
[27] = RPMI 5 mM glucose + 10% dialyzed FBS, 0.0632 µM
[28] = RPMI 5 mM glucose + 10% dialyzed FBS, 0.19 µM
[29] = RPMI 5 mM glucose + 10% dialyzed FBS, 0.569 µM
[30] = RPMI 5 mM glucose + 10% dialyzed FBS, 1.71 µM
[31] = RPMI 5 mM glucose + 10% dialyzed FBS, 5.12 µM
[32] = RPMI 5 mM glucose + 10% dialyzed FBS, 15.4 µM
[33] = RPMI 5 mM glucose + 10% dialyzed FBS, 46.1 µM

SMILES	cell viability [1] [%]	cell viability [2] [%]	cell viability [3] [%]	cell viability [4] [%]	cell viability [5] [%]	cell viability [6] [%]	cell viability [7] [%]	cell viability [8] [%]	cell viability [9] [%]	cell viability [10] [%]	cell viability [11] [%]	cell viability [12] [%]	cell viability [13] [%]	cell viability [14] [%]	cell viability [15] [%]	cell viability [16] [%]	cell viability [17] [%]	cell viability [18] [%]	cell viability [19] [%]	cell viability [20] [%]	cell viability [21] [%]	cell viability [22] [%]	cell viability [23] [%]	cell viability [24] [%]	cell viability [25] [%]	cell viability [26] [%]	cell viability [27] [%]	cell viability [28] [%]	cell viability [29] [%]	cell viability [30] [%]	cell viability [31] [%]	cell viability [32] [%]	cell viability [33] [%]
OC[C@H]1O[C@@H](O[C@@H]2[C@@H](CO)O[C@](O)(CO)[C@H]2O)[C@H](O)[C@@H](O)[C@H]1O	98.3	104	95.2	105	110	97	101	97.8	88.8	71.1	93.4	93.4	97.2	97	98.2	100	96.4	99	89.8	94.5	65.2	93.6	90.9	93	92.8	99.5	100	98.5	105	91.5	86	62.2	77.9
O=NN(CCCl)C(=O)NC1CCCCC1	102	106	107	96.4	107	107	112	111	111	103	105	102	96.5	97.1	97.3	116	113	104	97.2	112	107	111	97.4	105	105	102	113	108	105	110	105	103	113
Cc1ccccc1C(C(=O)NC1CCCCC1)N(C(=O)Cn1ccnc1C)c1cccc(F)c1 (stereo not given)	117	114	115	105	105	104	109	104	104	102	102	100	113	105	106	105	101	103	102	93.1	102	97.1	96.2	103	104	104	102	100	98.7	97.9	95.2	93.1	97.3
COc1cc2nc(N(C)CCCNC(=O)C3CCCO3)nc(N)c2cc1OC (stereo not given)	78.4	88.7	80.9	92.3	88.8	87.6	86.2	82.3	88.3	92.6	94.1	82.3	87.4	89.9	91	92.6	91.3	84.6	87.8	91.6	93.9	101	70.4	81.7	76.8	78.9	82.9	83.4	79.5	82.7	76.6	87.8	80.7
COc1cnc(N[S+](=O)([O-])c2ccc(N)cc2)nc1	107	118	113	119	122	125	134	126	117	90.1	45.1	101	109	109	117	118	118	126	130	117	102	59.2	111	108	122	119	127	118	128	124	119	104	67
O=C(NOCC(O)CO)c1cc(Br)c(F)c(F)c1Nc1ccc(I)cc1F (stereo not given)	82.9	84.2	81.7	87.8	83.8	74.8	74.4	68.2	64.2	73.9	52.3	74.6	87.6	79	73.8	80.3	67.9	63.8	62.5	56.2	66.4	54.5	76.2	79.2	73.9	81.9	74.3	71.2	65.6	71.8	66.1	76.6	58.7
C[C@@H](NC1=CC=CC=C1C(O)=O)C/2=C/C(=C\N3C(=O)/C=C(\N=C23)N4CCOCC4)C	87.2	87	101	94.1	95.9	93.2	97.1	89.3	75	60.5	39.9	82.4	78.7	83.5	97.1	92.1	84.7	85.7	72.2	59.2	47.9	27.6	77.7	85.3	93.1	92.9	90.5	88.4	80	87.4	61.9	46.3	33.1
CC1(C)CCC[C@]2(C)[C@H]3CC(=O)O[C@]3(C)CC[C@@H]12	118	115	114	114	116	110	115	116	110	107	99.1	121	120	122	120	119	124	119	109	109	111	93.5	110	115	119	116	112	113	105	107	108	97.5	92.4
C/C=C1\NC(=O)[C@H]2CSSCC/C=C\[C@H](CC(=O)N[C@H](C(C)C)C(=O)N2)OC(=O)[C@H](C(C)C)NC1=O	109	102	104	106	2.7	2.94	2.82	2.88	4.38	1.48	2.87	97.9	110	111	110	2.34	2.68	2.61	2.36	3.14	1.58	2.72	98.9	106	108	107	3.38	3.46	3.34	2.6	3.15	3.95	2.58
CC1(C)CC(=O)c2c(C(F)(F)F)nn(-c3ccc(C(N)=O)c(NC4CCC(O)CC4)c3)c2C1 (stereo not given)	90.3	87.3	85.5	82.4	90	67.1	42	33.7	36.1	36.6	80.9	84	93.5	85.6	77.6	82.2	48.2	32.1	25.6	27.6	28.1	84.5	84.2	81.9	81.9	73.1	80.8	44.3	28.7	30.4	25.5	27.8	73.7
C#Cc1cccc(Nc2ncnc3cc(OCCOC)c(OCCOC)cc23)c1	98.2	101	97.2	89.3	99.5	100	101	91.3	88.5	84.3	62	96.6	92.8	92.1	95.5	95.6	92	88.6	88.4	78.9	83.6	52.5	96.5	93.2	95.5	91.8	96.4	93.3	86.8	80.2	83.3	78.7	56.6
COc1cccc2cc(-c3nc(C4CCC(C(=O)O)CC4)n4ncnc(N)c34)[nH]c12 (stereo not given)	111	117	120	112	91.3	98.6	21	14.3	13.8	14.2	24.5	109	116	114	99.9	89	91.4	67.8	18.7	13.8	13.4	12.6	115	123	112	119	89.6	93.3	70.2	26.5	23.2	20.1	22.3
COc1nccc(-c2c(-c3ccc(F)cc3)ncn2C2CCNCC2)n1	99.1	108	113	110	113	100	96	100	104	90.6	80.2	109	112	106	120	117	106	108	98.2	109	104	90.5	98.2	111	117	111	119	110	106	98.9	104	94.7	80.7
CO[C@H]1/C=C/O[C@@]2(C)Oc3c(C)c(O)c4c(O)c(c5c(nc6cc(C)ccn65)c4c3C2=O)NC(=O)/C(C)=C\C=C\[C@H](C)[C@H](O)[C@@H](C)[C@@H](O)[C@@H](C)[C@H](OC(C)=O)[C@@H]1C	108	98.3	107	106	107	106	104	102	50.2	89.4	9.34	103	103	113	102	114	101	94.1	103	46.5	72.8	35.1	105	100	101	99.9	101	97.7	102	92.9	41.8	77.3	33.7
c1cncc(CN2CCC(n3ncc4c(N5CCOCC5)nc(-c5ccc6[nH]ccc6c5)nc43)CC2)c1	96.5	99.9	98.8	97.5	105	92.2	91.8	88.5	83.9	64.8	46.1	77.9	89.7	95.4	87.9	91.6	84.9	76.1	75.7	63.5	32.6	9.35	86.5	92.9	89.5	91.7	91.5	81.7	78.6	74.6	69.9	31.7	5.49
